Assay results reported in paper PMC11521309, “A novel 4-aminoquinoline chemotype with multistage antimalarial activity and lack of cross-resistance with PfCRT and PfMDR1 mutants” (PLOS Pathogens, 2024).
“And” between values parts separate entries of the source, which are not always exact repeats. Identical values can stand only once. Like-named read-outs stand apart in the source and are kept apart here.

Assays:
[1] = tested on: P. berghei ookinete formation; experiment: In vitro inhibition of ookinete formation (nLuc conversion assay), 24 h; assay type: cell-based, Plasmodium berghei; details: Plasmodium berghei; for activity at 10 µM: read-out: % Inhibition of ookinete conversion, 10 uM; for activity at 25 µM: read-out: % Inhibition of ookinete conversion, 25 uM; for activity at 100 µM: read-out: % Inhibition of ookinete conversion, 100 uM
Procedure: To measure the inhibition of gamete conversion into ookinetes, a mutant luciferase-expressing P. berghei line (nLuc) was intraperitoneally injected into BALB/c mice. After 3–4 days, gametocyte-carrying blood samples were collected. In vitro compound testing was carried out by exposing 4 μL of infected blood mixed with 80 μL of culture medium (RPMI-1640 supplemented with 25 mM HEPES, 50 mg/L hypoxanthine, and 1% penicillin/streptomycin/neomycin at pH 8.3) to a range of drug concentrations for 24 hours at 21°C. Following the incubation, 20 μL of nLuc substrate (Nano-Glo Luciferase Assay System, Promega) was added to each well, and luminescence was measured in a luminometer. Increased light emission correlated with nLuc production and subsequent luciferase activity due to in vitro fertilization and ookinete conversion, as luciferase expression in this parasite line is regulated by the CTRP promoter that is ookinete-specific. Conversion inhibition was calculated as the percentage of luciferase activity of drug-exposed wells relative to untreated ones, from which IC50 values were interpolated.

P. falciparum 7G8^7G8 = tested on: P. falciparum 7G8^7G8; design: key to Phenotype, 7G8^7G8: S: sensitive; R: resistant; details: cited from earlier work
[2] = tested on: Hz formation in ABS P. falciparum 3D7 parasites; experiment: Cellular heme fractionation assay; assay type: cell-based, Plasmodium falciparum
Procedure: A heme fractionation assay was used to measure the inhibition of Hz formation in cultured ABS P. falciparum 3D7 parasites as previously described. […] Late trophozoites were harvested after 32 hours of incubation by lysing RBCs with 0.05% saponin followed by multiple washes with 1 × PBS (pH 7.5) to remove any residual traces of hemoglobin. The parasite pellet was resuspended in PBS and the total number of trophozoites isolated was quantified using flow cytometry. Contents of the trophozoite pellet were released by hypotonic lysis and sonication. After centrifugation, treatments with HEPES buffer (pH 7.4), sodium dodecyl sulfate, pyridine, and NaOH, allowed us to separate the fractions corresponding to the different heme species of interest. A microplate reader was employed to measure the UV-visible spectrum of each heme fraction as a Fe(III)heme-pyridine complex. Fractions of undigested hemoglobin, “free” heme, and Hz were quantified using a heme standard curve based on the mass of each heme-Fe species per mature trophozoite (fg/cell), obtained by dividing the total amount of each heme species by the corresponding number of parasites in that fraction as determined by flow cytometry. Statistical comparisons and analyses for trends employed Students’ t-tests (GraphPad Prism version 9).

P. falciparum Dd2^T93S = tested on: P. falciparum Dd2^T93S; design: key to Phenotype, Dd2^T93S: S: sensitive; R: resistant; details: cited from earlier work
[3] = single replicates, Control = 100
[4] = 0.5x IC50, 32 h, single replicates
[5] = 0.5–3.0 × IC50 vs untreated control
[6] = 1x IC50, 32 h, single replicates
[7] = 2x IC50, 32 h, single replicates
[8] = 2.5x IC50, 32 h, single replicates
[9] = 3x IC50, 32 h, single replicates
[10] = Dd2T93S, mean ± SEM, ref 2 (Dhingra et al., 2019)

## CCN(CC)CCCC(C)Nc1ccnc2cc(Cl)ccc12 (centres unmarked) [CQ, chloroquine]
[1]; Mean, Control mean 96.63
  activity at 10 µM: 43.2%
  activity at 25 µM: 14.4%
  activity at 100 µM: 0.22%
[1]; [3]
  activity at 10 µM: 38.1%
  activity at 25 µM: 12.7%
  activity at 100 µM: 0.2%
[1]; read-out: % Inhibition of ookinete conversion, 50 uM, Mean, Control mean 96.63
  activity at 50 µM: 0.49%
[1]; read-out: inhibition of zygote conversion into ookinetes
  inhibition at 10 µM: 56.7%
P. falciparum 7G8^7G8; 7G87G8, mean ± SEM, ref 3 (Kim et al., 2019)
  IC50: 83 ± 7.5 nM
P. falciparum 7G8^7G8; ref [19],[20],[51]
  Phenotype, 7G8^7G8: R
[2]; 0.5x IC50, 32 h, Mean
  %Hb: 3.19%
  %Hemozoin: 88.03%
  Hb Fe (fg/troph): 1.79 fg/troph
  Heme Fe (fg/troph): 4.89 fg/troph
  Hemozoin Fe (fg/troph): 48.61 fg/troph
  Total Fe (fg/troph): 57.03 fg/troph
[2]; [4]
  %Hb: 3.1577% and 3.5151% and 3.0401% and 3.0419%
  %Heme: 10.1984% and 8.3472% and 8.0733% and 8.4973%
  %Hemozoin: 86.6439% and 88.1377% and 88.8867% and 88.4608%
  Hb Fe (fg/troph): 1.6883 fg/troph and 1.9552 fg/troph and 1.7265 fg/troph and 1.8935 fg/troph
  Heme Fe (fg/troph): 5.4527 fg/troph and 4.6429 fg/troph and 4.5850 fg/troph and 5.2894 fg/troph
  Hemozoin Fe (fg/troph): 46.3251 fg/troph and 49.0239 fg/troph and 50.4811 fg/troph and 55.0658 fg/troph
  Total Fe (fg/troph): 53.47 fg/troph and 55.62 fg/troph and 56.79 fg/troph and 62.25 fg/troph
[2]; [5]
  effect on Hz levels: Hz levels only decreased significantly from 2 × IC50
  effect on undigested Hb: significant at 2.5 × IC50 of CQ only
  effect on “free” heme: significant increase in “free” heme starting at 0.5 × IC50
[2]; 1x IC50, 32 h, Mean
  %Hb: 3.14%
  %Hemozoin: 88.13%
  Hb Fe (fg/troph): 1.74 fg/troph
  Heme Fe (fg/troph): 5.05 fg/troph
  Hemozoin Fe (fg/troph): 48.59 fg/troph
  Total Fe (fg/troph): 56.08 fg/troph
[2]; [6]
  %Hb: 2.4393% and 3.8543% and 3.1547% and 3.1175%
  %Heme: 10.2450% and 7.2686% and 7.4306%
  %Hemozoin: 87.3158% and 86.1923% and 89.5767% and 89.4519%
  Hb Fe (fg/troph): 1.3251 fg/troph and 2.0733 fg/troph and 1.8303 fg/troph and 1.8137 fg/troph
  Heme Fe (fg/troph): 5.5654 fg/troph and 5.3541 fg/troph and 4.2171 fg/troph and 4.3229 fg/troph
  Hemozoin Fe (fg/troph): 47.4331 fg/troph and 46.3642 fg/troph and 51.9709 fg/troph and 52.0405 fg/troph
  Total Fe (fg/troph): 54.32 fg/troph and 53.79 fg/troph and 58.02 fg/troph and 58.18 fg/troph
[2]; 2x IC50, 32 h, Mean
  %Hb: 3.51%
  %Hemozoin: 87.00%
  Hb Fe (fg/troph): 1.98 fg/troph
  Heme Fe (fg/troph): 5.58 fg/troph
  Hemozoin Fe (fg/troph): 48.43 fg/troph
  Total Fe (fg/troph): 56.59 fg/troph
[2]; [7]
  %Hb: 3.5841% and 3.0885% and 3.9396% and 3.4358%
  %Heme: 10.5037% and 10.6360% and 8.0922%
  %Hemozoin: 85.9123% and 86.2755% and 87.3313% and 88.4720%
  Hb Fe (fg/troph): 2.0351 fg/troph and 1.7333 fg/troph and 2.1697 fg/troph and 2.0058 fg/troph
  Heme Fe (fg/troph): 5.9641 fg/troph and 5.9691 fg/troph and 4.8074 fg/troph and 4.7243 fg/troph
  Hemozoin Fe (fg/troph): 48.7818 fg/troph and 48.4187 fg/troph and 48.0959 fg/troph and 51.6502 fg/troph
  Total Fe (fg/troph): 56.78 fg/troph and 56.12 fg/troph and 55.07 fg/troph and 58.38 fg/troph
[2]; 2.5x IC50, 32 h, Mean
  %Hb: 4.73%
  %Heme: 10.26%
  %Hemozoin: 85.01%
  Hb Fe (fg/troph): 2.72 fg/troph
  Heme Fe (fg/troph): 5.95 fg/troph
  Hemozoin Fe (fg/troph): 47.56 fg/troph
  Total Fe (fg/troph): 56.58 fg/troph
[2]; [8]
  %Hb: 4.8862% and 4.8721% and 4.7430% and 4.4317%
  %Heme: 10.8743% and 11.0956%
  %Hemozoin: 84.2395% and 85.3413% and 84.1614% and 86.2810%
  Hb Fe (fg/troph): 2.8007 fg/troph and 2.7933 fg/troph and 2.5619 fg/troph and 2.5547 fg/troph
  Heme Fe (fg/troph): 6.2331 fg/troph and 5.6110 fg/troph and 5.9933 fg/troph and 5.3538 fg/troph
  Hemozoin Fe (fg/troph): 48.2856 fg/troph and 48.9290 fg/troph and 45.4601 fg/troph and 49.7378 fg/troph
  Total Fe (fg/troph): 57.32 fg/troph and 57.33 fg/troph and 54.02 fg/troph and 57.65 fg/troph
[2]; 3x IC50, 32 h, Mean
  %Hb: 3.75%
  %Heme: 14.98%
  %Hemozoin: 81.27%
  Hb Fe (fg/troph): 2.01 fg/troph
  Heme Fe (fg/troph): 8.01 fg/troph
  Hemozoin Fe (fg/troph): 43.26 fg/troph
  Total Fe (fg/troph): 56.94 fg/troph
[2]; [9]
  %Hb: 2.5119% and 4.3346% and 4.4230% and 3.7332%
  %Heme: 15.7024% and 13.7857% and 15.6412% and 14.7736%
  %Hemozoin: 81.7857% and 81.8796% and 79.9358% and 81.4933%
  Hb Fe (fg/troph): 1.3141 fg/troph and 2.3188 fg/troph and 2.3892 fg/troph and 2.5358 fg/troph
  Heme Fe (fg/troph): 8.2149 fg/troph and 7.3747 fg/troph and 8.4490 fg/troph and 10.0350 fg/troph
  Hemozoin Fe (fg/troph): 42.7874 fg/troph and 43.8015 fg/troph and 43.1792 fg/troph and 55.3544 fg/troph
  Total Fe (fg/troph): 52.32 fg/troph and 53.50 fg/troph and 54.02 fg/troph and 67.93 fg/troph
P. falciparum Dd2^T93S; [10]
  IC50: 61.9 ± 7.6 nM
  IC90: 141 ± 6.3 nM
P. falciparum Dd2^T93S; ref [19],[20],[51]
  Phenotype, Dd2^T93S: R
